Assay results as given in patent US11878975B2, “Substituted indole compounds useful as TLR inhibitors” (BRISTOL-MYERS SQUIBB COMPANY, priority 2017, dated 2024).

Experiments:
Assay type in all cases: cell-based
human TLR9 = target: T1, human TLR9 (Homo sapiens, UniProt Q9NR96); experiment: TLR9 inhibition reporter assay (HEK-Blue cells, SEAP reporter, ODN2006 stimulation); settings: HEK-Blue cells overexpressing human TLR9, SEAP reporter, ODN2006 5 nM
T1 construct: host or cells: HEK-Blue cells
T1 sequence (Q9NR96 26-1032): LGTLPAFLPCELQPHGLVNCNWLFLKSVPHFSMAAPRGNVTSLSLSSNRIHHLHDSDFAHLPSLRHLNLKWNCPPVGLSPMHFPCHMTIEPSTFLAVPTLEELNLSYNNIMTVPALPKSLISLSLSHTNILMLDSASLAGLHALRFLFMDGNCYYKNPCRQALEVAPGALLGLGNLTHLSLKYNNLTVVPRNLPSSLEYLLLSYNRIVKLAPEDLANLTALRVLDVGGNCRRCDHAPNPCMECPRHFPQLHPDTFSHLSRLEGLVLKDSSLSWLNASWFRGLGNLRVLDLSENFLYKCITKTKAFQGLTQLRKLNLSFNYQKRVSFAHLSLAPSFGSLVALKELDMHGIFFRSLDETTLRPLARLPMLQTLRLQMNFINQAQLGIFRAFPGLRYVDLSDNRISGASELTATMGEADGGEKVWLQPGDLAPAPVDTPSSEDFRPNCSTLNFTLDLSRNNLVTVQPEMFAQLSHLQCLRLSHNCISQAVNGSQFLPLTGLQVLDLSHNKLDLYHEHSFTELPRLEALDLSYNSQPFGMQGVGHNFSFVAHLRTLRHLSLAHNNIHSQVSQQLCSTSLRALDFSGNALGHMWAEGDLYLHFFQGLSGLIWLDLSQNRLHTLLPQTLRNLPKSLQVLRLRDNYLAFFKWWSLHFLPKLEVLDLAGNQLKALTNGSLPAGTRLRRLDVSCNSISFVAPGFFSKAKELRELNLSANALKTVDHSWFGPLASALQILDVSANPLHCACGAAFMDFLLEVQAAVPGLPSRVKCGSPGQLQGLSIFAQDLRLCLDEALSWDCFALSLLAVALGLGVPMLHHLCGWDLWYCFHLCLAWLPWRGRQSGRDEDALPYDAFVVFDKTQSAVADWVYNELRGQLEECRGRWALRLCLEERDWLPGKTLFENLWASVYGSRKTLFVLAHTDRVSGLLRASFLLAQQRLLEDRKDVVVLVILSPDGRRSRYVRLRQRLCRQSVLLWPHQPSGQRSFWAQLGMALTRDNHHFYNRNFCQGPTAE
Method in brief: (§1)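 Percent inhibition is derived from SEAP signal, scaled between agonist-plus-DMSO wells and wells given a known inhibitor. Test compounds (0.05 nM–50 μM) are pre-incubated 30 min at room temperature before agonist addition (TLR7: 7.5 μM gardiquimod; TLR8: 15.9 μM R848; TLR9: 5 nM ODN2006) and 22 h culture at 37 °C.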

human TLR8 = target: T2, human TLR8 (Homo sapiens, UniProt Q9NR97); experiment: TLR8 inhibition reporter assay (HEK-Blue cells, SEAP reporter, R848 stimulation); settings: HEK-Blue cells overexpressing human TLR8, SEAP reporter, R848 15.9 μM
T2 construct: host or cells: HEK-Blue cells
T2 sequence (Q9NR97 27-1041): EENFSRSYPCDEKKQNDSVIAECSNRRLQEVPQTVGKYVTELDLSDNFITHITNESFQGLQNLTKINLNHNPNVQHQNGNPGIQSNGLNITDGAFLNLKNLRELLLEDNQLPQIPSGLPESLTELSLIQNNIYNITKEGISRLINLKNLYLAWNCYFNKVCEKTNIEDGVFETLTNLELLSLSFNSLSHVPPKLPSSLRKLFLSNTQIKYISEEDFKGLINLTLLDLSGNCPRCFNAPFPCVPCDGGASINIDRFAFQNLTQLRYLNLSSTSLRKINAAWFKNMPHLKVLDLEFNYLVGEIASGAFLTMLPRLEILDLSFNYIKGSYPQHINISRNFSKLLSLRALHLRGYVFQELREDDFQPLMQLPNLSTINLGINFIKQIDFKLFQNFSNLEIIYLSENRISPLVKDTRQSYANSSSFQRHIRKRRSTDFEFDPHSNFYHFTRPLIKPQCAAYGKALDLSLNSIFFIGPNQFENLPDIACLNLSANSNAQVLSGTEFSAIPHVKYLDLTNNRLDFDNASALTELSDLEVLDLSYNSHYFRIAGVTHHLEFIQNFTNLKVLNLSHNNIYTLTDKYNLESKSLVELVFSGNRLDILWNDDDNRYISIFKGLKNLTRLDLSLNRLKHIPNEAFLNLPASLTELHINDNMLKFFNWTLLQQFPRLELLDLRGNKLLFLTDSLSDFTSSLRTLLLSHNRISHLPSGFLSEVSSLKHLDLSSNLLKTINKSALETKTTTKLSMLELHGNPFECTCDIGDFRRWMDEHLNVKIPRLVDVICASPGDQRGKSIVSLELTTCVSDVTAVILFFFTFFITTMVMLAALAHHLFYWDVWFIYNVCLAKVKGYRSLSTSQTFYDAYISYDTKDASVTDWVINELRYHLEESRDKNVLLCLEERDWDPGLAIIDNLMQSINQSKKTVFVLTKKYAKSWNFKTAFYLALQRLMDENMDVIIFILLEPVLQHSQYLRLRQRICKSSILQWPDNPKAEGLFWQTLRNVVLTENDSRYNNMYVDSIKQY
Method in brief: as §1

human TLR7 = target: T3, human TLR7 (Homo sapiens, UniProt Q9NYK1); experiment: TLR7 inhibition reporter assay (HEK-Blue cells, SEAP reporter, gardiquimod stimulation); settings: HEK-Blue cells overexpressing human TLR7, SEAP reporter, gardiquimod 7.5 μM
T3 construct: host or cells: HEK-Blue cells
T3 sequence (Q9NYK1 27-1049): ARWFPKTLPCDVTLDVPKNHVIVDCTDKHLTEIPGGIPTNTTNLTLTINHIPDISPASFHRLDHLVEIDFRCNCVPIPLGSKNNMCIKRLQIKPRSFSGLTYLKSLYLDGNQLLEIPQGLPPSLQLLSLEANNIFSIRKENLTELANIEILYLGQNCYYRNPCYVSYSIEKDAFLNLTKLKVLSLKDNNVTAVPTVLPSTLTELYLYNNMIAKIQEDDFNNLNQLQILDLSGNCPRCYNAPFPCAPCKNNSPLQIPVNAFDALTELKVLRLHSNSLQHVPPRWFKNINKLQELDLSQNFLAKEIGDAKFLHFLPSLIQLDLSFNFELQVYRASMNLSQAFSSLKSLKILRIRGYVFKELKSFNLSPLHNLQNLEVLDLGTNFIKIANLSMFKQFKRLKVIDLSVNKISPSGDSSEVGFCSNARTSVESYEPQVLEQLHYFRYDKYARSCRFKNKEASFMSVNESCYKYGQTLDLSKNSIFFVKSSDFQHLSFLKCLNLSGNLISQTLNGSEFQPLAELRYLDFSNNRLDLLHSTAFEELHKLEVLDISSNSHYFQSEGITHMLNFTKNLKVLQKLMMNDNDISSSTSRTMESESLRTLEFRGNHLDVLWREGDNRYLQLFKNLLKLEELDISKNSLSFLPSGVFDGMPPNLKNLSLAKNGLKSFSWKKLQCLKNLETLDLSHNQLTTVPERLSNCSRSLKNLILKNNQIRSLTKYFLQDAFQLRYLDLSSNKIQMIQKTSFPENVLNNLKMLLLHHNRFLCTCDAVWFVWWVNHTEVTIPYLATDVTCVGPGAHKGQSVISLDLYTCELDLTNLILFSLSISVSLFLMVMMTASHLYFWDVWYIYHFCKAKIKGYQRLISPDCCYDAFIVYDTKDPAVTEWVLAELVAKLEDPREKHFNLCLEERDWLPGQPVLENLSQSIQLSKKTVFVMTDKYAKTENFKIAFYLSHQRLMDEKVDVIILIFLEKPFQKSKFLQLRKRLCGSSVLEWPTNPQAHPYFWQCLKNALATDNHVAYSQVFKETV
Method in brief: as §1

Row | SMILES | IC50 (human TLR9) [nM] | IC50 (human TLR8) [nM] | IC50 (human TLR7) [nM]
1 | COc1cc(-c2[nH]c3ccc(C4CCCN(C5COC5)C4)cc3c2C(C)C)cn2ncnc12 (stereo not drawn) [Example 240] | 11600 | 4.2 | 5
2 | Cc1c(-c2[nH]c3ccc(C4CCCNC4)cc3c2C(C)C)cn2ncnc2c1C (stereo not drawn) [Example 190] | 851 | 0.35 | 0.43
3 | COc1cc(-c2[nH]c3ccc(C4CCC(N5CCCC(F)(F)C5)CC4)cc3c2C(C)C)cn2ncnc12 (stereo not drawn) [Example 35] | 18000 | 122 | 55
4 | Cc1c(-c2[nH]c3ccc(C4CCC(NCC(=O)N(C)C)CC4)cc3c2C(C)C)cn2cnnc2c1C (stereo not drawn) [Example 517] | 2460 | 42 | 5
5 | Cc1c(-c2[nH]c3ccc(C4CC5CN(CC#N)CC5C4)cc3c2C(C)C)cn2ncnc2c1C (stereo not drawn) [Example 512] | 16300 | 15 | 3
6 | Cc1c(-c2[nH]c3ccc(C4CC(N(C)CCS(C)(=O)=O)C4)cc3c2C(C)C)cn2ncnc2c1C (stereo not drawn) [Example 582] | 35700 | 0.56 | 3
7 | COc1cc(-c2[nH]c3ccc(C4CCC(N5CC(F)(F)C5)CC4)cc3c2C(C)C)cn2ncnc12 (stereo not drawn) [Example 18] | 33600 | 38 | 5
8 | Cc1c(-c2[nH]c3ccc(C4CCC(N5CC(F)(F)C5)CC4)cc3c2C(C)C)cn2ncnc2c1C (stereo not drawn) [Example 25] | > 50000 | 180 | 49
9 | Cc1cc(-c2[nH]c3ccc(C4CN(CC5(C)COC5)CCO4)cc3c2C(C)C)cn2ncnc12 (stereo not drawn) [Example 291] | > 50000 | 26 | 20
10 | Cc1cc(-c2[nH]c3ccc(C4CCC(N5CCOCC5)CC4)cc3c2C(C)C)cc(C)n1 (stereo not drawn) [Example 55] | 480 | 15 | 8
11 | COc1cc(-c2[nH]c3ccc(C4CCCN(C5COC5)C4)cc3c2C(C)C)cn2ncnc12 (stereo not drawn) [Example 237] | 21200 | 38 | 15
12 | COc1cc(-c2[nH]c3ccc(C4CC(NC5COC5)C4)cc3c2C(C)C)cn2ncnc12 (stereo not drawn) [Example 579] | 7410 | 0.73 | 1
13 | Cc1c(-c2[nH]c3ccc(C4CCC(N5CC(CO)(CO)C5)CC4)cc3c2C(C)C)cn2ncnc2c1C (single isomer, unassigned) [Example 26] | 260 | 0.84 | 0.92
14 | Cc1cc(-c2[nH]c3ccc(C4CN(C(=O)CN(C)C)C(C)(C)CO4)cc3c2C(C)C)cn2ncnc12 (single isomer, unassigned) [Example 373, 2-(dimethylamino)-1-(2-(3-isopropyl-2-(8-methyl-[1,2,4]triazolo[1,5-a]pyridin-6-yl)-1H-indol-5-yl)-5,5-dimethylmorpholino)ethanone] | > 50000 | 36 | 6
15 | COc1cc(-c2[nH]c3ccc(C4CCC(N5CC(F)C5)CC4)cc3c2C(C)C)cn2ncnc12 (stereo not drawn) [Example 23] | 2840 | 9.2 | 2
16 | Cc1cc(-c2[nH]c3ccc(C4CN(C)CCO4)cc3c2C(C)C)cn2ncnc12 (stereo not drawn) [Example 296] | 8260 | 6.3 | 3
17 | COc1cc(-c2[nH]c3ccc(C4CCC(N5CC6(COC6)C5)CC4)cc3c2C(C)C)cn2ncnc12 (stereo not drawn) [Example 73] | 1590 | 0.58 | 0.32
18 | COC1CCC(c2ccc3[nH]c(-c4cc(C)c5ncnn5c4)c(C(C)C)c3c2)CC1 (stereo not drawn) [Example 168, 6-(3-isopropyl-5-(4-methoxycyclohexyl)-1H-indol-2-yl)-8-methyl-[1,2,4]triazolo[1,5-a]pyridine] | 34400 | 265 | 15
19 | COc1cc(-c2[nH]c3ccc(C4CCC(N)CC4)cc3c2C(C)C)cn2ncnc12 (single isomer, unassigned) [Example 2, 4-(3-isopropyl-2-(8-methoxy-[1,2,4]triazolo[1,5-a]pyridin-6-yl)-1H-indol-5-yl) cyclohexanamine] | 3420 | 1.1 | 0.37
20 | CNC(=O)CN1CC(c2ccc3[nH]c(-c4cn5ncnc5c(C)c4C)c(C(C)C)c3c2)OCC1(C)C (stereo not drawn) [Example 388] | > 50000 | 41 | 37
21 | Cc1cc(-c2[nH]c3ccc(C4CCCN(C(=O)CN5CCOCC5)C4)cc3c2C(C)C)cc(C)n1 (stereo not drawn) [Example 196] | 31600 | 84 | 16
22 | Cc1c(-c2[nH]c3ccc(C4CCC(NCC(=O)N(C)C)CC4)cc3c2C(C)C)cn(C)c(=O)c1C (stereo not drawn) [Example 480] | 6200 | 6.3 | 20
23 | Cc1c(-c2[nH]c3ccc(CC4CN(CCS(C)(=O)=O)C4)cc3c2C(C)C)cn2ncnc2c1C [Example 437] | 4720 | 4.2 | 8
24 | COCCN(C)C1CCC(c2ccc3[nH]c(-c4cc(OC)c5ncnn5c4)c(C(C)C)c3c2)CC1 (single isomer, unassigned) [Example 72] | 1280 | 1.2 | 0.3
